Consider 40 compounds from patent publication EP4567031A1, “HPK1 INHIBITOR, PREPARATION METHOD THEREFOR, AND USE THEREOF” (Beijing Earthwise Technology Co., Ltd., priority 2022, dated 2024).

One test deals with HPK1 (Homo sapiens, UniProt Q92918). As to the kind of experiment: HPK1 HTRF kinase assay. In kind it is biochemical. The note with it: 1000 µM ATP, 50 nM HPK1, STK1 substrate. The method, then:
The reaction was initiated by adding 50 nM HPK1. After 120 minutes of reaction, the assay was terminated by adding 10 µL of Detection Mix.
The ratio of the signal at 665 nm to the signal at 615 nm was converted to the percentage of inhibition. Inhibition % = (maximum value - sample value) / (maximum value - minimum value)×100. The minimum value refers to the value measured in a well without enzyme but with DMSO and substrate, and the maximum value refers to the value measured in a well with DMSO, enzyme and substrate. IC50 values were calculated by XLFit (version 5.3.1.3) in Excel. Equation: Y = Bottom + (Top - Bottom) / (1 + (IC50/X) ^ HillSlope).
Background: TR-FRET usually uses a lanthanide donor and a delayed reading to cut background.

The subject of another test is human Pan T cells. Nature of the test: Human Pan T cell IL-2 ELISA. The class given is cell-based. The note with it: Homo sapiens, T-cell, 48 h, Anti-CD3 and Anti-CD28, supernatant IL-2 ELISA, read-out: IL-2 release, EC50. Summed up: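 Human Pan T cells (1×10^6 cells/ml) stimulated with plate-bound anti-CD3 plus anti-CD28 and treated 48 h with compound at 9 final concentrations, 39.063–10000 nM. Supernatant IL-2 by ELISA, expressed as fold over DMSO wells; EC50 from four-parameter logistic fit.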
On the technique in general: ELISA stands for enzyme-linked immunosorbent assay.

SMILES strings stand for the structures. Where two headings read alike, the source gives them in different places. Bounds are passed on as bounds.

HPK1, sequence (Q92918 whole entry, species assumed): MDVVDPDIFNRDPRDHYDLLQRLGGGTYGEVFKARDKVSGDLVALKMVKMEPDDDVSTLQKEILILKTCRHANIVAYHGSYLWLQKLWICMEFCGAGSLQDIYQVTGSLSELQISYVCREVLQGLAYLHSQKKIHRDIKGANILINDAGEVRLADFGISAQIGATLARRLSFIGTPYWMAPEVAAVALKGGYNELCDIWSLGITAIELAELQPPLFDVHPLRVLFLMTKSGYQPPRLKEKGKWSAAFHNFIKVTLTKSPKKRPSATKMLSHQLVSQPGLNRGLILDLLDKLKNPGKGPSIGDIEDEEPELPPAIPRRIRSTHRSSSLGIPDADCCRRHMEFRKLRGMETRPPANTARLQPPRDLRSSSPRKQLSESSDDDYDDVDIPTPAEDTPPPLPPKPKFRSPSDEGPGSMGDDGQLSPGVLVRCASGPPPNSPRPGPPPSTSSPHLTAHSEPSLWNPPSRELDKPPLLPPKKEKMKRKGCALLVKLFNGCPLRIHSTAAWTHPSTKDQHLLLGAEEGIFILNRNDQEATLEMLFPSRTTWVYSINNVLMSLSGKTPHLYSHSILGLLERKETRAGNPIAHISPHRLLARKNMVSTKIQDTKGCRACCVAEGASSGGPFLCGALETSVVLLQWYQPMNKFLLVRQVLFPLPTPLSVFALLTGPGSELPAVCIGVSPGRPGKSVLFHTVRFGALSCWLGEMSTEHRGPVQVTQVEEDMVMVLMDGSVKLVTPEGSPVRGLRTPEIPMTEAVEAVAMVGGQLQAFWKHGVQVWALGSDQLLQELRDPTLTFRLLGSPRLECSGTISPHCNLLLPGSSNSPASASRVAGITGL

`CC1(C)c2cc(N3CCOCC3)ccc2Nc2c1cc(-c1cnc3cc(F)ccn13)c1c2C(=O)NC1` [Example 62]: the IC50 – broadly, the concentration that inhibits the measured activity by half – on HPK1 (read-out: HPK1, IC50) was determined as 6.08 nM. Moreover, in the test on human Pan T cells, the EC50 (as a rule, the concentration giving half of the maximal effect) came out at 3.02 nM.

On to `CC1(C)c2cc(NC(=O)CC3CC3)ccc2Nc2c1cc(-c1cnn3cccnc13)c1c2C(=O)NC1` [Example 56], for which, on HPK1 (read-out: HPK1, IC50), the IC50 was 11.5 nM. For the same compound, the EC50 with human Pan T cells was 28 nM.

Turning to `CC1(C)c2cc(N3CCOCC3)ccc2Nc2c1cc(-c1cnc3c(C#N)cccn13)c1c2C(=O)NC1` [Example 34], on HPK1 (read-out: HPK1, IC50), the IC50 turned out to be 11.5 nM. The 50% effective concentration (EC50) in the test with human Pan T cells is 2.41 nM.

Turning to `Cc1ncc(-c2cc3c(c4c2CNC4=O)Nc2ccc(N4CCOCC4)cc2C3(C)C)n1C` [Example 87], the IC50 at HPK1 (read-out: HPK1, IC50) worked out at 7.88 nM. Besides, the concentration for a half-maximal effect (EC50) with human Pan T cells came out at 8.97 nM.

`CN1CCn2c(-c3cc4c(c5c3CNC5=O)Nc3ccc(N5CCOCC5)cc3C4(C)C)cnc2C1=O` [Example 84]: the half-maximal inhibitory concentration (IC50) on HPK1 (read-out: HPK1, IC50) stood at 8.63 nM. In addition, the EC50 in the test on human Pan T cells came to 65.9 nM.

Take `CC1(C)c2cc(N3CCOC(C(C)(C)O)C3)ccc2Nc2c1cc(-c1cnc3c(C#N)cccn13)c1c2C(=O)NC1` (stereo not shown) [Example 23]: at HPK1 (read-out: HPK1, IC50), the IC50 amounted to 3.65 nM. For the same compound, the 50% effective concentration (EC50) with human Pan T cells is under 1.5 nM.

Take `CC1(C)c2cc(N3CCOCC3)cnc2Nc2c1cc(-c1cnn3cccnc13)c1c2C(=O)NC1` [Example 28]: the IC50 at HPK1 (read-out: HPK1, IC50) was determined as 21.5 nM. In the test with human Pan T cells, the EC50 is 95.9 nM.

With `COc1ccnc2c(-c3cc4c(c5c3CNC5=O)Nc3ccc(N5CCOCC5)cc3C4(C)C)cnn12` [Example 66], the IC50 on HPK1 (read-out: HPK1, IC50) stood at 11.1 nM.

With `CC1(C)c2cc(N3CCOCC3)ccc2Nc2c1cc(-c1cnn3ccncc13)c1c2C(=O)NC1` [Example 35], the half-inhibitory concentration (IC50) on HPK1 (read-out: HPK1, IC50) is 12.8 nM. In addition, in the test with human Pan T cells, the EC50 turned out to be 14.5 nM.

`CC1(C)c2cc(CN3CCN(CC4CC4)CC3)ccc2Nc2c1cc(-c1cnn3cccnc13)c1c2C(=O)NC1` [Example 72]: on HPK1 (read-out: HPK1, IC50), the 50% inhibitory concentration (IC50) was determined as 2.13 nM. Further, the half-maximal effective concentration (EC50) in the test on human Pan T cells worked out at 18.1 nM.

The compound `Cc1ccn2c(-c3cc4c(c5c3CNC5=O)Nc3ccc(N5CCOC(C(C)(C)O)C5)cc3C4(C)C)cnc2c1F` (single isomer, unassigned) [Example 89] displayed a half-inhibitory concentration (IC50) against HPK1 (HPK1, IC50 (nM)) of 8.13 nM.

As to `CC1(C)c2cc(N3CCOCC3)ccc2Nc2c1cc(-c1cnc3n1CCC3)c1c2C(=O)NC1` [Example 86], the IC50 at HPK1 (read-out: HPK1, IC50) came to 7.95 nM. For the same compound, in the test with human Pan T cells, the half-maximal effective concentration (EC50) turned out to be 11.5 nM.

On to `CC1(C)c2cc(N3CCOCC3)ncc2Nc2c1cc(-c1cnn3cccnc13)c1c2C(=O)NC1` [Example 26], for which the half-inhibitory concentration (IC50) on HPK1 (read-out: HPK1, IC50) turned out to be 14.5 nM. The half-maximal effective concentration (EC50) with human Pan T cells came out at 14.9 nM.

For `Cc1ccnn2c(-c3cc4c(c5c3CNC5=O)Nc3ccc(N5CCOC(C(C)(C)O)C5)cc3C4(C)C)cnc12` (stereo not shown) [Example 33], the IC50 at HPK1 (read-out: HPK1, IC50) amounted to 11.4 nM.

On HPK1 (HPK1, IC50 (nM)), `COC1CCCn2c(-c3cc4c(c5c3CNC5=O)Nc3ccc(N5CCOCC5)cc3C4(C)C)cnc21` (single isomer, unassigned) [Example 91] gave an IC50 of 4.24 nM.

`COc1cccn2c(-c3cc4c(c5c3CNC5=O)Nc3ccc(N5CCOCC5)cc3C4(C)C)nnc12` [Example 75]: the IC50 at HPK1 (read-out: HPK1, IC50) is 4.55 nM. The EC50 in the test with human Pan T cells came out at 1.41 nM.

On to `Cn1c(-c2cc3c(c4c2CNC4=O)Nc2ccc(N4CCOCC4)cc2C3(C)C)cnc1C1CC1` [Example 68], for which the IC50 at HPK1 (read-out: HPK1, IC50) is 12 nM. The concentration giving a half-maximal response (EC50) in the test with human Pan T cells amounted to 21.1 nM.

In the case of `CN1CCn2c(-c3cc4c(c5c3CNC5=O)Nc3ccc(N5CCOCC5)cc3C4(C)C)cnc2C1` [Example 78], on HPK1 (read-out: HPK1, IC50), the IC50 worked out at 35 nM. In the test with human Pan T cells, the half-maximal effective concentration (EC50) is 75.5 nM.

As for `COC1CCCn2c(-c3cc4c(c5c3CNC5=O)Nc3ccc(N5CCOCC5)cc3C4(C)C)cnc21` (single isomer, unassigned) [Example 90], at HPK1 (read-out: HPK1, IC50), the IC50 was determined as 6.72 nM. Besides, the EC50 in the test with human Pan T cells was 6.3 nM.

Take `CC1(C)c2cc(-c3cnn4cccnc34)c3c(c2Nc2cccc(OC4CCNC4)c21)C(=O)NC3` (stereo not shown) [Example 58]: on HPK1 (read-out: HPK1, IC50), the half-maximal inhibitory concentration (IC50) is 4150 nM.

For the compound `COC1CCCc2c(-c3cc4c(c5c3CNC5=O)Nc3ccc(N5CCOCC5)cc3C4(C)C)cnn21` (single isomer, unassigned) [Example 177], in the test with human Pan T cells, the EC50 turned out to be 25 nM.

Consider `CC1(C)c2cc(N3CCOCC3)ccc2Nc2c1cc(-c1cnc3n1CCC(O)C3)c1c2C(=O)NC1` (single isomer, unassigned) [Example 241], for which, in the test on human Pan T cells, the EC50 came to 10 nM.

Take `COC1CCCn2c(-c3cc4c(c5c3CNC5=O)Nc3ccc(N5CC(C)OC(C)C5)cc3C4(C)C)cnc21` (single isomer, unassigned) [Example 140]: the EC50 in the test with human Pan T cells was determined as 35.8 nM.

`Cc1c(-c2cc3c(c4c2CNC4=O)Nc2ccc(N4CCOC(C(C)(C)O)C4)cc2C3(C)C)cnc2c1NCCO2` (stereo not shown) [Example 104]: the concentration for a half-maximal effect (EC50) in the test with human Pan T cells was 6.44 nM.

As to `COCC1CN(c2ccc3c(c2)C(C)(C)c2cc(-c4cnc5c(F)c(C)ccn45)c4c(c2N3)C(=O)NC4)CCO1` (stereo not shown) [Example 131], the EC50 with human Pan T cells was determined as 8.27 nM.

Take `COc1c(F)ccn2c(-c3cc4c(c5c3CNC5=O)Nc3ccc(N5CCOC(C(C)(C)O)C5)cc3C4(C)C)cnc12` (single isomer, unassigned) [Example 127]: in the test with human Pan T cells, the EC50 amounted to 12.4 nM.

Take `CCc1nccn2c(-c3cc4c(c5c3CNC5=O)Nc3ccc(N5CCOCC5)cc3C4(C)C)cnc12` [Example 164]: in the test on human Pan T cells, the concentration giving a half-maximal response (EC50) was 17 nM.

As for `CC1(C)c2cc(N3CCOCC3)ccc2Nc2c1cc(-c1nnc3cc(C#N)ccn13)c1c2C(=O)NC1` [Example 249], the EC50 with human Pan T cells was found to be 4.7 nM.

With `COc1nccn2c(-c3cc4c(c5c3CCNC5=O)Nc3ccc(N5CCOCC5)cc3C4(C)C)cnc12` [Example 280], the half-maximal effective concentration (EC50) with human Pan T cells is 13 nM.

Take `CC1(C)c2cc(N3CCOC(C(C)(C)O)C3)ccc2Nc2c1cc(-c1cnc3cc(Cl)ccn13)c1c2C(=O)NC1` (single isomer, unassigned) [Example 125]: the half-maximal effective concentration (EC50) with human Pan T cells turned out to be 7.23 nM.

As to `CC1(C)c2cc(N3CCOCC3)ccc2Nc2c1cc(-c1cnc3c(C(F)F)nccn13)c1c2C(=O)NC1` [Example 222], in the test on human Pan T cells, the half-maximal effective concentration (EC50) stood at 6.4 nM.

Turning to `CC1(C)c2cc(N3CCOCC3)ccc2Nc2c1cc(-c1cnc3n1CCC(C#N)C3)c1c2C(=O)NC1` (single isomer, unassigned) [Example 242], the half-maximal effective concentration (EC50) in the test on human Pan T cells is 8.5 nM.

On to `C#Cc1ccn2c(-c3cc4c(c5c3CNC5=O)Nc3ccc(N5CCOCC5)cc3C4(C)C)cnc2c1` [Example 216], for which the EC50 in the test on human Pan T cells was 5.4 nM.

As to `COc1nccn2c(-c3cc4c(c5c3CNC5=O)Nc3ccc(N5CCOC(C(C)(C)O)C5)cc3C4(C)C)cnc12` (stereo not shown) [Example 114], the concentration giving a half-maximal response (EC50) with human Pan T cells is 10.9 nM.

Regarding `CC1(C)c2cc(N3CCOC(C(C)(C)O)C3)ccc2Nc2c1cc(-c1cnc3c(Cl)cccn13)c1c2C(=O)NC1` (stereo not shown) [Example 99], the concentration giving a half-maximal response (EC50) in the test with human Pan T cells was found to be 5.52 nM.

Consider `CCOC1CCCn2c(-c3cc4c(c5c3CNC5=O)Nc3ccc(N5CCOCC5)cc3C4(C)C)cnc21` (single isomer, unassigned) [Example 136], for which the EC50 in the test on human Pan T cells worked out at 24.5 nM.

Regarding `CCC1(C)c2cc(N3CCOCC3)ccc2Nc2c1cc(-c1cnc3c(OC)nccn13)c1c2C(=O)NC1` (single isomer, unassigned) [Example 212], the EC50 in the test with human Pan T cells turned out to be 11 nM.

For the compound `CNC1CCN(c2ccc3c(c2)C(C)(C)c2cc(-c4cnn5cccnc45)c4c(c2N3)C(=O)NC4)CC1` [Example 45], the EC50 with human Pan T cells stood at 5.28 nM.

As to `Cc1ccc2c(-c3cc4c(c5c3CNC5=O)Nc3ccc(N5CCOC(C(C)(C)O)C5)cc3C4(C)C)cnn2c1` (single isomer, unassigned) [Example 95], in the test on human Pan T cells, the EC50 worked out at 7.82 nM.

In the case of `CC1(C)c2cc(N3CCOCC3)ccc2Nc2c1cc(-c1cnc3c(OC4COC4)nccn13)c1c2C(=O)NC1` [Example 184], in the test on human Pan T cells, the half-maximal effective concentration (EC50) came out at 14 nM.
